One assay deals with HCT116-MTAP-KO. In words: Cell killing in HCT116 isogenic pair (Cell Titer-Glo viability), MTAP knock-out cells. Format: cell-based, human. Particulars: Homo sapiens, HCT-116, 144 h, 6 days incubation, 0-10 μM, * = more than 50% viability inhibition at tested concentration without a full curve. Summed up: (§1)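 Viability was read by CellTiter-Glo luminescence after 6 days of compound treatment (0–10 μM final, 37° C, 5% CO2), and IC50 values were fitted. The isogenic HCT116 pair, MTAP-KO clone versus mock-KO MTAP-wildtype, was grown in RPMI 1640 plus 10% FBS and seeded the day before.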
In general terms: In ATP-based viability assays light output follows the ATP content of the culture.

The test system of another assay is HCT116-mock-RNA-KO. In words: Cell killing in HCT116 isogenic pair (Cell Titer-Glo viability), mock knock-out cells with MTAP wildtype genotype. Format: cell-based, human. The following applies: Homo sapiens, HCT-116, 144 h, 6 days incubation, 0-10 μM. Summed up:
as §1

Structures are written as SMILES. A value given as a limit tells only on which side of the number the result lay.

In the case of `C[C@H]1OCc2c1c(N)nc1cc(C(=O)N(C)[C@H]3COCc4cc(Br)ccc43)[nH]c21` [Example 71, (R)-5-amino-N—((R)-7-bromoisochroman-4-yl)-N,6-dimethyl-6,8-dihydro-1H-furo[3,4-d]pyrrolo[3,2-b]pyridine-2-carboxamide], the IC50 (usually the concentration that inhibits the measured activity by half) turned out to be 728 nM in the assay on HCT116-MTAP-KO and 6160 nM in the assay on HCT116-mock-RNA-KO.
In the same order, the values of `C[C@H]1OCc2c1c(N)nc1cc(C(=O)N(C)[C@@H]3COCc4cc(Br)ccc43)[nH]c21` [Example 72, (R)-5-amino-N—((S)-7-bromoisochroman-4-yl)-N,6-dimethyl-6,8-dihydro-1H-furo[3,4-d]pyrrolo[3,2-b]pyridine-2-carboxamide] are 8.2 nM and 1010 nM.
As to `CCN(C(=O)c1cc2nc(N)c3c(c2[nH]1)COC3)[C@@H]1COCc2cc(Cl)ccc21` [Example 73, (S)-5-amino-N-(7-chloroisochroman-4-yl)-N-ethyl-6,8-dihydro-1H-furo[3,4-d]pyrrolo[3,2-b]pyridine-2-carboxamide], the IC50 was determined as 34 nM in the assay with HCT116-MTAP-KO and 2490 nM in the assay with HCT116-mock-RNA-KO.
With `CCN(C(=O)c1cc2nc(N)c3c(c2[nH]1)COC3)[C@H]1COCc2cc(Cl)ccc21` [Example 74, (R)-5-amino-N-(7-chloroisochroman-4-yl)-N-ethyl-6,8-dihydro-1H-furo[3,4-d]pyrrolo[3,2-b]pyridine-2-carboxamide], the 50% inhibitory concentration (IC50) in the assay on HCT116-MTAP-KO was 1070 nM; in the assay with HCT116-mock-RNA-KO, > 10000 nM.
Take `CCN(C(=O)c1cc2nc(N)c3c(c2[nH]1)COC3)[C@@H]1COCc2cc(F)cc(F)c21` [Example 75, (S)-5-amino-N-(5,7-difluoroisochroman-4-yl)-N-ethyl-6,8-dihydro-1H-furo[3,4-d]pyrrolo[3,2-b]pyridine-2-carboxamide]: the IC50 was 41 nM in the assay on HCT116-MTAP-KO and > 10000 nM with HCT116-mock-RNA-KO.
Take `CCN(C(=O)c1cc2nc(N)c3c(c2[nH]1)COC3)[C@H]1COCc2cc(F)cc(F)c21` [Example 76, (R)-5-amino-N-(5,7-difluoroisochroman-4-yl)-N-ethyl-6,8-dihydro-1H-furo[3,4-d]pyrrolo[3,2-b]pyridine-2-carboxamide]: the figures for the IC50 with HCT116-MTAP-KO and in the assay on HCT116-mock-RNA-KO were 2110 nM and > 10000 nM, respectively.
Turning to `CCN(C(=O)c1cc2nc(N)c3c(c2[nH]1)COC3)[C@@H]1COc2cc(C(F)(F)F)ccc21` [Example 77, (S)-5-amino-N-ethyl-N-(6-(trifluoromethyl)-2,3-dihydrobenzofuran-3-yl)-6,8-dihydro-1H-furo[3,4-d]pyrrolo[3,2-b]pyridine-2-carboxamide], the IC50 with HCT116-MTAP-KO is 51 nM; in the assay with HCT116-mock-RNA-KO it was > 10000 nM.
In the same order, the values of `C[C@@H]1OC[C@H](N(C)C(=O)c2cc3nc(N)c4c(c3[nH]2)COC4)c2ccc(Br)cc21` [Example 78, 5-amino-N-((1S,4R)-7-bromo-1-methylisochroman-4-yl)-N-methyl-6,8-dihydro-1H-furo[3,4-d]pyrrolo[3,2-b]pyridine-2-carboxamide] are 624 nM and 2930 nM.
`C[C@H]1OC[C@H](N(C)C(=O)c2cc3nc(N)c4c(c3[nH]2)COC4)c2ccc(Br)cc21` [Example 79, 5-amino-N-((1R,4R)-7-bromo-1-methylisochroman-4-yl)-N-methyl-6,8-dihydro-1H-furo[3,4-d]pyrrolo[3,2-b]pyridine-2-carboxamide]: the concentration for half-maximal inhibition (IC50) turned out to be 525 nM with HCT116-MTAP-KO and 3280 nM in the assay with HCT116-mock-RNA-KO.
As to `C[C@@H]1OC[C@@H](N(C)C(=O)c2cc3nc(N)c4c(c3[nH]2)COC4)c2ccc(Br)cc21` [Example 80, 5-amino-N-((1S,4S)-7-bromo-1-methylisochroman-4-yl)-N-methyl-6,8-dihydro-1H-furo[3,4-d]pyrrolo[3,2-b]pyridine-2-carboxamide], the half-maximal inhibitory concentration (IC50) is 351 nM in the assay on HCT116-MTAP-KO and > 10000 nM with HCT116-mock-RNA-KO.
As to `C[C@H]1OC[C@@H](N(C)C(=O)c2cc3nc(N)c4c(c3[nH]2)COC4)c2ccc(Br)cc21` [Example 81, 5-amino-N-((1R,4S)-7-bromo-1-methylisochroman-4-yl)-N-methyl-6,8-dihydro-1H-furo[3,4-d]pyrrolo[3,2-b]pyridine-2-carboxamide], the results for the 50% inhibitory concentration (IC50) with HCT116-MTAP-KO and in the assay with HCT116-mock-RNA-KO were 9.7 nM and 1020 nM, respectively.
Regarding `CN(C(=O)c1cc2nc(N)c3c(c2[nH]1)COC3)[C@@H]1COCc2cc(C(F)(F)F)cc(F)c21` [Example 82, (S)-5-amino-N-(5-fluoro-7-(trifluoromethyl)isochroman-4-yl)-N-methyl-6,8-dihydro-1H-furo[3,4-d]pyrrolo[3,2-b]pyridine-2-carboxamide], the IC50 with HCT116-MTAP-KO is 13 nM; with HCT116-mock-RNA-KO, 1840 nM.
With `C[C@H]1OC[C@@H](N(C)C(=O)c2cc3nc(N)c4c(c3[nH]2)CO[C@@H]4C)c2ccc(C(F)(F)F)cc21` [Example 83, (R)-5-amino-N,6-dimethyl-N-((1R,4S)-1-methyl-7-(trifluoromethyl)isochroman-4-yl)-6,8-dihydro-1H-furo[3,4-d]pyrrolo[3,2-b]pyridine-2-carboxamide], the IC50 in the assay on HCT116-MTAP-KO was 7.2 nM; with HCT116-mock-RNA-KO, 556 nM.
For `CN(C(=O)c1cc2nc(N)c3c(c2[nH]1)COC3)[C@@H]1COCc2cc(I)ccc21` [Example 84, (S)-5-amino-N-(7-iodoisochroman-4-yl)-N-methyl-6,8-dihydro-1H-furo[3,4-d]pyrrolo[3,2-b]pyridine-2-carboxamide], the 50% inhibitory concentration (IC50) with HCT116-MTAP-KO stood at 10 nM; with HCT116-mock-RNA-KO, 2200 nM.
For `CN(C(=O)c1cc2nc(N)c3c(c2[nH]1)COC3)[C@@H]1COCc2nc(C(F)(F)F)ccc21` [Example 85, (S)-5-amino-N-methyl-N-(2-(trifluoromethyl)-5,8-dihydro-6H-pyrano[3,4-b]pyridin-5-yl)-6,8-dihydro-1H-furo[3,4-d]pyrrolo[3,2-b]pyridine-2-carboxamide], the half-maximal inhibitory concentration (IC50) in the assay with HCT116-MTAP-KO was 113 nM; in the assay with HCT116-mock-RNA-KO, > 10000 nM.
Regarding `CN(C(=O)c1cc2nc(N)c3c(c2[nH]1)COC3)[C@H]1COCc2nc(C(F)(F)F)ccc21` [Example 86, (R)-5-amino-N-methyl-N-(2-(trifluoromethyl)-5,8-dihydro-6H-pyrano[3,4-b]pyridin-5-yl)-6,8-dihydro-1H-furo[3,4-d]pyrrolo[3,2-b]pyridine-2-carboxamide], the IC50 in the assay with HCT116-MTAP-KO is 1900 nM; in the assay with HCT116-mock-RNA-KO, > 10000 nM.
For the compound `CN(C(=O)c1cc2nc(N)c3c(c2[nH]1)COC3)[C@@H]1COCc2nc(C3CC3)ccc21` [Example 87, (S)-5-amino-N-(2-cyclopropyl-5,8-dihydro-6H-pyrano[3,4-b]pyridin-5-yl)-N-methyl-6,8-dihydro-1H-furo[3,4-d]pyrrolo[3,2-b]pyridine-2-carboxamide], the IC50 was 67 nM with HCT116-MTAP-KO and > 10000 nM with HCT116-mock-RNA-KO.
For the compound `CN(C(=O)c1cc2nc(N)c3c(c2[nH]1)COC3)[C@H]1COCc2nc(C3CC3)ccc21` [Example 88, (R)-5-amino-N-(2-cyclopropyl-5,8-dihydro-6H-pyrano[3,4-b]pyridin-5-yl)-N-methyl-6,8-dihydro-1H-furo[3,4-d]pyrrolo[3,2-b]pyridine-2-carboxamide], the half-maximal inhibitory concentration (IC50) is 1410 nM in the assay with HCT116-MTAP-KO and > 10000 nM with HCT116-mock-RNA-KO.
In the case of `CCN(C(=O)c1cc2nc(N)c3c(c2[nH]1)COC3)[C@@H]1CO[C@H](C)c2cc(C(F)(F)F)ccc21` [Example 89, 5-amino-N-ethyl-N-((1R,4S)-1-methyl-7-(trifluoromethyl)isochroman-4-yl)-6,8-dihydro-1H-furo[3,4-d]pyrrolo[3,2-b]pyridine-2-carboxamide], the IC50 with HCT116-MTAP-KO was found to be 4.1 nM; with HCT116-mock-RNA-KO, 446 nM.
In the same order, the values of `CC(=O)N1CC[C@@H](N(C)C(=O)c2cc3nc(N)c4c(c3[nH]2)COC4)c2ccc(C(F)(F)F)cc21` [Example 90, (R)—N-(1-acetyl-7-(trifluoromethyl)-1,2,3,4-tetrahydroquinolin-4-yl)-5-amino-N-methyl-6,8-dihydro-1H-furo[3,4-d]pyrrolo[3,2-b]pyridine-2-carboxamide] are 29 nM and 5450 nM.
In the same order, the values of `CN(C(=O)c1cc2nc(N)c3c(c2[nH]1)COC3)[C@@H]1COC2(CC2)c2cc(C(F)(F)F)ccc21` [Example 91, (S)-5-amino-N-methyl-N-(7′-(trifluoromethyl)spiro[cyclopropane-1,1′-isochroman]-4′-yl)-6,8-dihydro-1H-furo[3,4-d]pyrrolo[3,2-b]pyridine-2-carboxamide] are 32 nM and 3880 nM.
On to `CN(C(=O)c1[nH]c2c3c(c(N)nc2c1C#N)COC3)[C@@H]1COCc2cc(C(F)(F)F)ccc21` [Example 92, (S)-5-amino-3-cyano-N-methyl-N-(7-(trifluoromethyl)isochroman-4-yl)-6,8-dihydro-1H-furo[3,4-d]pyrrolo[3,2-b]pyridine-2-carboxamide], for which the 50% inhibitory concentration (IC50) with HCT116-MTAP-KO came to 49 nM; in the assay on HCT116-mock-RNA-KO it was 2050 nM.
As to `CC[C@@H]1OC[C@@H](N(C)C(=O)c2cc3nc(N)c4c(c3[nH]2)COC4)c2ccc(C(F)(F)F)cc21` [Example 93, 5-amino-N-((1S,4S)-1-ethyl-7-(trifluoromethyl)isochroman-4-yl)-N-methyl-6,8-dihydro-1H-furo[3,4-d]pyrrolo[3,2-b]pyridine-2-carboxamide], the IC50 with HCT116-MTAP-KO is 165 nM; in the assay with HCT116-mock-RNA-KO, > 10000 nM.
For the compound `CC[C@H]1OC[C@@H](N(C)C(=O)c2cc3nc(N)c4c(c3[nH]2)COC4)c2ccc(C(F)(F)F)cc21` [Example 94, 5-amino-N-((1R,4S)-1-ethyl-7-(trifluoromethyl)isochroman-4-yl)-N-methyl-6,8-dihydro-1H-furo[3,4-d]pyrrolo[3,2-b]pyridine-2-carboxamide], the IC50 in the assay on HCT116-MTAP-KO was determined as 3.8 nM; in the assay on HCT116-mock-RNA-KO it was 578 nM.
On to `CN(C(=O)c1cc2nc(N)c3c(c2[nH]1)COC3)[C@@H]1COCc2cc(C3CC3)cc(F)c21` [Example 95, (S)-5-amino-N-(7-cyclopropyl-5-fluoroisochroman-4-yl)-N-methyl-6,8-dihydro-1H-furo[3,4-d]pyrrolo[3,2-b]pyridine-2-carboxamide], for which the IC50 came out at 18 nM in the assay with HCT116-MTAP-KO and 1780 nM with HCT116-mock-RNA-KO.

(Values after patent publication US20240368177A1, “5-AMINO-6,8-DIHYDRO-1H-FURO[3,4-d]PYRROLO[3,2-b]PYRIDINE-2-CARBOXAMIDE DERIVATIVES AS MTA-COOPERATIVE INHIBITORS OF PRMT5” (BeiGene Switzerland GmbH, priority 2023, published 2024).)
